Experimental data from PMC9220351, “Evaluation of a Conformationally Constrained Indole Carboxamide as a Potential Efflux Pump Inhibitor in Pseudomonas aeruginosa” (Antibiotics, 2022).
In brackets after ≈: the same amount, converted by molar mass. Read-outs that look alike come from different tables or passages of the source.

What was measured:
P. aeruginosa K767 (WT) = assay: MIC assay, strain K767; format: cell-based, Pseudomonas aeruginosa; conditions: antibiotic alone; for MIC: Pseudomonas aeruginosa, read-out: MICs K767 (WT)
Text: (§1) P. aeruginosa ATCC 27853 was obtained from the American Type Culture Collection (ATCC; Manassas, VA, USA). P. aeruginosa multidrug-resistant isolates were obtained from the CDC and FDA Antibiotic Resistance Isolate Bank (Atlanta, GA, USA). P. aeruginosa DA7232 (gyrA-T83I, parC-S80L) was a kind gift from Prof. Dan I. Andersson, Uppsala University, Uppsala, Sweden, and has been characterized elsewhere. P. aeruginosa strains K767 (WT), K1455 (mexAB-oprM overexpressed), K2415 (mexXY-oprM overexpressed), and K3698 (oprM∆) were obtained from Prof. Keith Poole, Queen’s University, Kingston, Ontario, Canada and have been characterized elsewhere. Bacterial cells were grown in cation-adjusted Mueller Hinton (CAMH) media, brain heart infusion broth (BHI), or tryptic soy agar (TSA) plates were all obtained from Becton, Dickinson, and Company (BD; Franklin Lakes, NJ, USA). Aztreonam, ceftazidime, moxifloxacin, levofloxacin, minocycline, tigecycline, chloramphenicol, nitrocefin, and imipenem were purchased from TOKU-E (Bellingham, WA, USA). Azithromycin was purchased from Tokyo Chemical Industry (Portland, OR, USA). Cotrimoxazole was purchased from Toronto Research Chemicals (Toronto, ON, Canada). Doxycycline and polymyxin B were purchased from Sigma-Aldrich (St. Louis, MO, USA). Ethidium bromide (EtBr) and glucose were purchased from VWR (Radnor, PA, USA). MC-04,124 and TXA01182 were synthesized at TAXIS Pharmaceuticals. Carbonyl cyanide 3-chlorophenylhydrazone (CCCP) was purchased from Enzo Life Sciences (Farmingdale, NY, USA). DiOC2 (3) and propidium iodide were obtained from Thermo Fisher Scientific (Waltham, MA, USA).
(§2) MIC assays were performed as described previously.

[1] = tested on: P. aeruginosa K1455 (mexAB-oprM overexpressed); assay: microbe, parasite or virus in culture; format: cell-based, Pseudomonas aeruginosa; conditions: for MIC: Pseudomonas aeruginosa, read-out: MICs K1455 (↑mexAB-oprM); for MIC Ratios K1455 (↑mexAB-oprM)/K3698 (∆oprM): effect of pump deletion
Text: as §1, §2

[2] = tested on: P. aeruginosa K2415 (mexXY-oprM overexpressed); assay: MIC / potentiation assay, strain K2415; format: cell-based, Pseudomonas aeruginosa; conditions: for MIC: Pseudomonas aeruginosa, read-out: MICs K2415 (↑mexXY-oprM)
Text: as §1, §2

[3] = tested on: P. aeruginosa mutants EPIR1S, EPIR9S, EPIR20L, EPIR43; assay: MIC of antimicrobials in TXA09155-resistant mutants; format: cell-based, Pseudomonas aeruginosa
Experimental: All resistant colonies were verified by determining the MIC to TXA09155. […] This two-component system regulates the expression of more than 100 genes in P. aeruginosa, including genes that code for efflux components (mexX), and plays a role in the resistance to cationic antimicrobial peptides and aminoglycoside antibiotics.
as §2

P. aeruginosa ATCC 27853 = assay: MIC / antibiotic potentiation assay, wild-type strain; conditions: for Antibiotic MIC in Presence of TXA09155 at a Concentration of 3.13: TXA09155 3.13 μg/mL; for Antibiotic MIC in Presence of TXA09155 at a Concentration of 25: TXA09155 25 μg/mL; for Emax: ratio between MIC without EPI and MIC in the presence of a maximal potentiating concentration of EPI (TXA09155); for antibiotic potentiated by TXA09155 up to x-fold: TXA09155 25 to 3.13 µg/mL
[4] = tested on: P. aeruginosa K3698 (∆oprM); assay: MIC / potentiation assay, strain K3698; format: cell-based, Pseudomonas aeruginosa; conditions: for MIC: Pseudomonas aeruginosa, read-out: MICs K3698 (∆oprM)
Text: as §1, with “Aztreonam, ceftazidime, moxifloxacin, levofloxacin, minocycline, tigecycline, chloramphenicol, nitrocefin, and imipenem were purchased from TOKU-E (Bellingham, WA, USA).” left out, “Cotrimoxazole was purchased from Toronto Research Chemicals (Toronto, ON, Canada). Doxycycline and polymyxin B were purchased from Sigma-Aldrich (St. Louis, MO, USA).” left out
as §2

[5] = Pseudomonas aeruginosa, strain EPIR1S (phoQ-L175R)
[6] = Pseudomonas aeruginosa, strain EPIR9S (phoQ-L175R)
[7] = Pseudomonas aeruginosa, strain EPIR20L (phoQ-H248D)
[8] = Pseudomonas aeruginosa, ATCC27853, read-out: Antibiotic MIC in Presence of TXA09155 at a Concentration of 0
[9] = Pseudomonas aeruginosa, ATCC27853, read-out: MICs, Lack of EPI

Compound | MIC (P. aeruginosa K767 (WT)) [µg/mL] | MIC [1] [µg/mL] | MIC [2] [µg/mL] | MIC [3, 5] [µg/mL] | MIC [3, 7] [µg/mL] | MIC (P. aeruginosa ATCC 27853; [8]) [µg/mL] | Antibiotic MIC in Presence of TXA09155 at a Concentration of 3.13 (P. aeruginosa ATCC 27853) [µg/mL] | Antibiotic MIC in Presence of TXA09155 at a Concentration of 25 (P. aeruginosa ATCC 27853) [µg/mL] | Antibiotic MIC in Presence of TXA09155 at a Concentration of 12.5 (P. aeruginosa ATCC 27853) [µg/mL] | Emax (P. aeruginosa ATCC 27853) | other results
C[C@H]1c2cccc(O)c2C(=O)C2=C(O)[C@]3(O)C(=O)C(C(N)=O)=C(O)[C@@H](N(C)C)[C@@H]3[C@@H](O)[C@@H]21 [Doxycycline] | 32 (≈ 72 µM) | ≥ 256 | 32 | 16 | 16 | 32 | 16 |  |  |  | MIC [3, 6]: 16 µg/mL; MIC (P. aeruginosa ATCC 27853; [9]): 32 µg/mL
C[C@@H](O)[C@H]1C(=O)N2C(C(=O)O)=C(S[C@@H]3CN[C@H](C(=O)N(C)C)C3)[C@H](C)[C@H]12 [MEM, meropenem] |  |  |  | 2 | 2 |  |  |  |  |  | MIC [3, 6]: 1 µg/mL
CN(C)c1ccc(O)c2c1C[C@H]1C[C@H]3[C@H](N(C)C)C(O)=C(C(N)=O)C(=O)[C@@]3(O)C(O)=C1C2=O [Minocycline] | 64 (≈ 140 µM) | > 256 | 32 |  |  | 32 | 16 | 0.125 | 0.25 | 256 | MIC [4]: 1 µg/mL; MIC (P. aeruginosa ATCC 27853; [9]): 32 µg/mL
polymyxin B [PMB] |  |  |  |  |  |  |  |  |  |  | MIC ([3]; strain EPIR1S (phoQ-L175R)): 4 µg/mL; MIC ([3]; strain EPIR9S (phoQ-L175R)): 2 µg/mL; MIC ([3]; strain EPIR20L (phoQ-H248D)): 4 µg/mL; MIC ([3]; strain EPIR43 (ompH-Q127X)): 4 µg/mL; MIC (P. aeruginosa ATCC 27853; ATCC 27853, parent strain): 2 µg/mL
CN(C)c1cc(NC(=O)CNC(C)(C)C)c(O)c2c1C[C@H]1C[C@H]3[C@H](N(C)C)C(O)=C(C(N)=O)C(=O)[C@@]3(O)C(O)=C1C2=O [TGC, tigecycline] |  |  |  | 8 | 8 |  |  |  |  |  | MIC (P. aeruginosa ATCC 27853; ATCC 27853, parent strain): 8 µg/mL
C[C@H]1[C@H](NC(=O)/C(=N\OC(C)(C)C(=O)O)c2csc(N)n2)C(=O)N1S(=O)(=O)O [Aztreonam] |  |  |  |  |  | 8 | 4 | 0.25 |  | 32 | 
CO/N=C(\C(=O)N[C@@H]1C(=O)N2C(C(=O)[O-])=C(C[n+]3cccc4c3CCC4)CS[C@H]12)c1csc(N)n1 [Cefpirome] | 2 (≈ 3.89 µM) | 8 (≈ 15.5 µM) | 8 |  |  | 8 | 4 | 0.5 | 0.5 | 16 | MIC Ratios K1455 (↑mexAB-oprM) ± TXA09155 [1]: 8; MIC Ratios K1455 (↑mexAB-oprM)/K3698 (∆oprM) ([1]; antibiotic alone): 4; MIC Ratios K2415 (↑mexXY-oprM) ± TXA09155 [2]: 8; MIC [4]: 0.5 µg/mL; MIC Ratios K3698 (∆oprM) ± TXA09155 [4]: 2; antibiotic potentiated by TXA09155 up to x-fold (P. aeruginosa ATCC 27853): up to 16 fold; FICindex (P. aeruginosa ATCC 27853; sum of the FICindex of antibiotic and TXA09155, <0.5 synergistic): 0.25
Cotrimoxazole |  |  |  |  |  |  | 256 | 2 | 4 | 128 | MICs K767 (WT) (P. aeruginosa K767 (WT)): 64 µg/mL; MICs K1455 (↑mexAB-oprM) ([1]; antibiotic alone): > 256 µg/mL; MICs K2415 (↑mexXY-oprM) ([2]; antibiotic alone): 64 µg/mL; MICs K3698 (∆oprM) ([4]; antibiotic alone): 4 µg/mL; Antibiotic MIC in Presence of TXA09155 at a Concentration of 0 (P. aeruginosa ATCC 27853; TXA09155 0 μg/mL): 256 µg/mL
C[C@@H](O)[C@H]1C(=O)N2C(C(=O)O)=C(SCCN=CN)C[C@H]12 [Imipenem] | 2 (≈ 6.68 µM) | 1 (≈ 3.34 µM) | 1 |  |  | 2 | 2 | 2 | 2 | 1 | MIC Ratios K1455 (↑mexAB-oprM) ± TXA09155 [1]: 1; MIC Ratios K1455 (↑mexAB-oprM)/K3698 (∆oprM) ([1]; antibiotic alone): 1; MIC Ratios K2415 (↑mexXY-oprM) ± TXA09155 [2]: 1; MIC [4]: 2 µg/mL; MIC Ratios K3698 (∆oprM) ± TXA09155 [4]: 1; antibiotic potentiated by TXA09155 up to x-fold (P. aeruginosa ATCC 27853): not potentiated
NCC[C@H](O)C(=O)N[C@@H]1C[C@H](N)[C@@H](O[C@H]2O[C@H](CN)[C@@H](O)[C@H](O)[C@H]2O)[C@H](O)[C@H]1O[C@H]1O[C@H](CO)[C@@H](O)[C@H](N)[C@H]1O [AMK, amikacin] |  |  |  | 8 | 8 |  |  |  |  |  | 
COc1c(N2C[C@@H]3CCCN[C@@H]3C2)c(F)cc2c(=O)c(C(=O)O)cn(C3CC3)c12 [Moxifloxacin] |  |  |  |  |  | 2 | 2 | 0.016 | 0.031 |  | MIC (P. aeruginosa ATCC 27853; [9]): 2 µg/mL
CC[C@H]1OC(=O)[C@H](C)[C@@H](O[C@H]2C[C@@](C)(OC)[C@@H](O)[C@H](C)O2)[C@H](C)[C@@H](O[C@@H]2O[C@H](C)C[C@H](N(C)C)[C@H]2O)[C@](C)(O)C[C@@H](C)CN(C)[C@H](C)[C@@H](O)[C@]1(C)O [AZM, azithromycin] |  |  |  | 64 | 64 |  |  |  |  |  | MIC (P. aeruginosa ATCC 27853; ATCC 27853, parent strain): 64 µg/mL
CC(C)(O/N=C(\C(=O)N[C@@H]1C(=O)N2C(C(=O)[O-])=C(C[n+]3ccccc3)CS[C@H]12)c1csc(N)n1)C(=O)O [CAZ, ceftazidime] |  |  |  | 2 | 2 |  |  |  |  |  | MIC (P. aeruginosa ATCC 27853; ATCC 27853, parent strain): 2 µg/mL
O=C(N[C@H](CO)[C@H](O)c1ccc([N+](=O)[O-])cc1)C(Cl)Cl [Chloramphenicol] | 128 (≈ 396 µM) | > 256 | 128 |  |  | > 256 | >256 | 2 | 4 | >128 | MIC [4]: 8 µg/mL; MIC (P. aeruginosa ATCC 27853; [9]): > 256 µg/mL
